Assay results from ChEMBL document CHEMBL3616445, “Design, synthesis and biological evaluation of multifunctional ligands targeting opioid and bradykinin 2 receptors” (Bioorg Med Chem Lett, 2015).
Square brackets hold non-standard residues; d marks the D form. Side chains are listed from the residue outwards. Peptide text beside a SMILES is read from it. Oic = O=C(O)[C@@H]1C[C@@H]2CCCC[C@@H]2N1; Hyp = O=C(O)[C@@H]1C[C@@H](O)CN1; dTic = O=C(O)[C@H]1Cc2ccccc2CN1; 2Thi = N[C@@H](Cc1cccs1)C(=O)O; Dap = NC[C@H](N)C(=O)O

Assays:
Mu-type opioid receptor = Mu-type opioid receptor (Rattus norvegicus, UniProt P33535); experiment: Displacement of [3H]DAMGO from rat mu opiod receptor
[1] = molecular target: Delta-type opioid receptor (Homo sapiens, UniProt P41143); experiment: Displacement of [3H]DPDPE from human delta opiod receptor
B2 bradykinin receptor [2] = molecular target: T1, B2 bradykinin receptor (Rattus norvegicus, UniProt P25023); experiment: Displacement of [3H]BK from B2R in rat brain membranes by liquid scintillation counting in based radioligand competition assay; format: cell membranes, Membrane
T1 sequence (P25023 whole entry): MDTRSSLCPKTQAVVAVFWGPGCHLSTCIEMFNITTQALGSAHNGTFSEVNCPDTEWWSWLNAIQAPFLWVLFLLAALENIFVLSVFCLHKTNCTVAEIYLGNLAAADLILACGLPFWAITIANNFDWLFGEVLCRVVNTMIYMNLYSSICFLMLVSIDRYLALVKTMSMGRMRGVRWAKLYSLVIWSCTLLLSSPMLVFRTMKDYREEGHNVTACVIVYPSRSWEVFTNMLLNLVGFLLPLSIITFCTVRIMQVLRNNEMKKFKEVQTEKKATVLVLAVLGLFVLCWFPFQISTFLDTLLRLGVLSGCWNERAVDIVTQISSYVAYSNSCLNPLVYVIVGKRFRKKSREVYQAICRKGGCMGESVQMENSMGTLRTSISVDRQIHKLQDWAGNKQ

B2 bradykinin receptor [3] = molecular target: T2, B2 bradykinin receptor (Cavia porcellus, UniProt O70526); experiment: Antagonist activity against B2R in Hartley guinea pig ileum assessed as reduction in electrically-induced response; format: tissue-based
T2 sequence (O70526 whole entry): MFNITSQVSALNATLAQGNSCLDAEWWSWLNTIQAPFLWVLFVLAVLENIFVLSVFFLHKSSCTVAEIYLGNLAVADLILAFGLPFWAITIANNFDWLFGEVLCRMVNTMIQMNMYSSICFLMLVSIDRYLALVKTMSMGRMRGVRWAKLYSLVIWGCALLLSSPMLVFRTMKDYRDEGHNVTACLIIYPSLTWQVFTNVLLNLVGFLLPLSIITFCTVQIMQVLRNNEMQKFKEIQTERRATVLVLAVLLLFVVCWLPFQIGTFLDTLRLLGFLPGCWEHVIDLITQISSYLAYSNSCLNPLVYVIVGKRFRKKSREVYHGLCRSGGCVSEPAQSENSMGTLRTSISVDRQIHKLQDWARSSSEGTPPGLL

B2 bradykinin receptor [4] = molecular target: T2, B2 bradykinin receptor; experiment: Binding affinity to B2R in guinea pig ileum membranes; format: cell membranes, Membrane

Sequence of Delta-type opioid receptor (P41143 whole entry): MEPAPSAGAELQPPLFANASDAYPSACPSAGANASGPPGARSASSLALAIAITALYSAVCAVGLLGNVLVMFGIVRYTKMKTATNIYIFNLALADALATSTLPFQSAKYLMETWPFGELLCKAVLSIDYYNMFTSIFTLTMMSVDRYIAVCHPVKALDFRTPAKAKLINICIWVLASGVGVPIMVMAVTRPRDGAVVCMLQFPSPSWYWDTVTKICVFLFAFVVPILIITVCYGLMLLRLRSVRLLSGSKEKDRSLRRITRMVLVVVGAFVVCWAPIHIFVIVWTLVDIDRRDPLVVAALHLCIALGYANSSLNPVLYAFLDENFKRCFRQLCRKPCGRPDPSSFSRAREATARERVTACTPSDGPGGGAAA
Sequence of Mu-type opioid receptor (P33535 whole entry): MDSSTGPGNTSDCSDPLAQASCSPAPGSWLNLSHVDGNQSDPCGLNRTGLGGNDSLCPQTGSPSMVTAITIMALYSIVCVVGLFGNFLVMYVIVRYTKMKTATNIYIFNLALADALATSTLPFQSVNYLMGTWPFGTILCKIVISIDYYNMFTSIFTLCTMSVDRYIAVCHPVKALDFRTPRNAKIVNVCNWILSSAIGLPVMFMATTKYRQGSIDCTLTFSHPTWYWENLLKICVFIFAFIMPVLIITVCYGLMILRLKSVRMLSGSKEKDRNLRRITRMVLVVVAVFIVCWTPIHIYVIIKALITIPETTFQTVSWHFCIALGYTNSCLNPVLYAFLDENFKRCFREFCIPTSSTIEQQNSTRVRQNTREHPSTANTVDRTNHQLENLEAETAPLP

`N=C(N)NCCC[C@H](NC(=O)[C@@H]1C[C@@H]2CCCC[C@@H]2N1C(=O)[C@H]1Cc2ccccc2CN1C(=O)[C@H](CO)NC(=O)[C@H](Cc1cccs1)NC(=O)CNC(=O)[C@@H]1C[C@@H](O)CN1C(=O)[C@@H]1CCCN1C(=O)[C@H](CCCNC(=N)N)NC(=O)[C@@H](CCCNC(=N)N)NC(=O)[C@H](Cc1ccccc1)NC(=O)[C@@H]1CCCN1C(=O)[C@@H](N)Cc1ccc(O)cc1)C(=O)O` gave a Ki (Mu-type opioid receptor) of 2300 nM, a pIC50 (Mu-type opioid receptor) of 5.29 and a Ki [1] of over 10000 nM. It also gave a Ki (B2 bradykinin receptor [2]) of over 10000 nM.
In the case of `CSCC[C@H](NC(=O)[C@H](Cc1ccccc1)NC(=O)[C@@H](C)NC(=O)[C@@H](N)Cc1ccc(O)cc1)C(=O)N[C@H](CCCNC(=N)N)C(=O)N[C@@H](CCCNC(=N)N)C(=O)N1CCC[C@H]1C(=O)N1C[C@H](O)C[C@H]1C(=O)NCC(=O)N[C@@H](Cc1cccs1)C(=O)N[C@@H](CO)C(=O)N1Cc2ccccc2C[C@@H]1C(=O)N1[C@H](C(=O)N[C@@H](CCCNC(=N)N)C(=O)O)C[C@@H]2CCCC[C@@H]21`, the IC50 (Mu-type opioid receptor) is reported as 155 nM, the Ki (Mu-type opioid receptor) is reported as 70 nM and the IC50 [1] is reported as 17000 nM. It also gave a Ki [1] of 6900 nM, a Ki (B2 bradykinin receptor [2]) of 5200 nM and an IC50 (B2 bradykinin receptor [3]) of 1.8 nM.
`N=C(N)NCCC[C@H](NC(=O)[C@@H]1C[C@@H]2CCCC[C@@H]2N1C(=O)[C@H]1Cc2ccccc2CN1C(=O)[C@H](CO)NC(=O)[C@H](Cc1cccs1)NC(=O)CNC(=O)[C@@H]1C[C@@H](O)CN1C(=O)[C@@H]1CCCN1C(=O)[C@H](CCCNC(=N)N)NC(=O)[C@@H](CCCNC(=N)N)NC(=O)[C@H](Cc1ccccc1)NC(=O)[C@H](Cc1ccccc1)NC(=O)[C@@H]1CCCN1C(=O)[C@@H](N)Cc1ccc(O)cc1)C(=O)O` gave a Ki (Mu-type opioid receptor) of 480 nM, a pIC50 (Mu-type opioid receptor) of 5.97 and a Ki [1] of over 10000 nM. The Ki (B2 bradykinin receptor [2]) was over 10000 nM and the IC50 (B2 bradykinin receptor [3]) was 1.9 nM.
`C[C@@H](NC(=O)[C@@H](N)Cc1ccc(O)cc1)C(=O)NCC(=O)N[C@@H](Cc1ccccc1)C(=O)N[C@H](CCCNC(=N)N)C(=O)N[C@@H](CCCNC(=N)N)C(=O)N1CCC[C@H]1C(=O)N1C[C@H](O)C[C@H]1C(=O)NCC(=O)N[C@@H](Cc1cccs1)C(=O)N[C@@H](CO)C(=O)N1Cc2ccccc2C[C@@H]1C(=O)N1[C@H](C(=O)N[C@@H](CCCNC(=N)N)C(=O)O)C[C@@H]2CCCC[C@@H]21` gave an IC50 (Mu-type opioid receptor) of 22.9 nM, an IC50 [1] of 4170 nM and a Ki (B2 bradykinin receptor [2]) of over 10000 nM. For the same molecule, the IC50 (B2 bradykinin receptor [3]) was 1.7 nM.
With `C[C@@H](NC(=O)[C@@H](N)Cc1ccc(O)cc1)C(=O)NCC(=O)N[C@@H](Cc1ccccc1)C(=O)NCCC(=O)N[C@H](CCCNC(=N)N)C(=O)N[C@@H](CCCNC(=N)N)C(=O)N1CCC[C@H]1C(=O)N1C[C@H](O)C[C@H]1C(=O)NCC(=O)N[C@@H](Cc1cccs1)C(=O)N[C@@H](CO)C(=O)N1Cc2ccccc2C[C@@H]1C(=O)N1[C@H](C(=O)N[C@@H](CCCNC(=N)N)C(=O)O)C[C@@H]2CCCC[C@@H]21` the IC50 (Mu-type opioid receptor) was 3.09 nM and the IC50 [1] was 91.2 nM.
Molecule `C[C@@H](NC(=O)[C@@H](N)Cc1ccc(O)cc1)C(=O)NCC(=O)N[C@@H](Cc1ccccc1)C(=O)NCCCCCCCC(=O)N[C@H](CCCNC(=N)N)C(=O)N[C@@H](CCCNC(=N)N)C(=O)N1CCC[C@H]1C(=O)N1C[C@H](O)C[C@H]1C(=O)NCC(=O)N[C@@H](Cc1cccs1)C(=O)N[C@@H](CO)C(=O)N1Cc2ccccc2C[C@@H]1C(=O)N1[C@H](C(=O)N[C@@H](CCCNC(=N)N)C(=O)O)C[C@@H]2CCCC[C@@H]21` has an IC50 (Mu-type opioid receptor) of 1.23 nM and an IC50 [1] of 4.68 nM.
`C[C@@H](NC(=O)[C@@H](N)Cc1ccc(O)cc1)C(=O)NCC(=O)N[C@@H](Cc1ccccc1)C(=O)NC[C@H](N)C(=O)N[C@H](CCCNC(=N)N)C(=O)N[C@@H](CCCNC(=N)N)C(=O)N1CCC[C@H]1C(=O)N1C[C@H](O)C[C@H]1C(=O)NCC(=O)N[C@@H](Cc1cccs1)C(=O)N[C@@H](CO)C(=O)N1Cc2ccccc2C[C@@H]1C(=O)N1[C@H](C(=O)N[C@@H](CCCNC(=N)N)C(=O)O)C[C@@H]2CCCC[C@@H]21` gave an IC50 (Mu-type opioid receptor) of 1.41 nM and a Ki (Mu-type opioid receptor) of 0.6 nM.
`C[C@@H](NC(=O)[C@@H](N)Cc1ccc(O)cc1)C(=O)NCC(=O)N[C@@H](Cc1ccccc1)C(=O)NC[C@H](N)C(=O)NCCC(=O)N[C@H](CCCNC(=N)N)C(=O)N[C@@H](CCCNC(=N)N)C(=O)N1CCC[C@H]1C(=O)N1C[C@H](O)C[C@H]1C(=O)NCC(=O)N[C@@H](Cc1cccs1)C(=O)N[C@@H](CO)C(=O)N1Cc2ccccc2C[C@@H]1C(=O)N1[C@H](C(=O)N[C@@H](CCCNC(=N)N)C(=O)O)C[C@@H]2CCCC[C@@H]21` was tested, and the Ki (Mu-type opioid receptor) was 0.5 nM, the pIC50 (Mu-type opioid receptor) was 8.94 and the Ki [1] was 7 nM. It also gave a pIC50 [1] of 7.77.
Molecule `C[C@@H](NC(=O)[C@@H](N)Cc1ccc(O)cc1)C(=O)NCC(=O)N[C@@H](Cc1ccccc1)C(=O)NCCCCCCCC(=O)NC[C@H](N)C(=O)N[C@H](CCCNC(=N)N)C(=O)N[C@@H](CCCNC(=N)N)C(=O)N1CCC[C@H]1C(=O)N1C[C@H](O)C[C@H]1C(=O)NCC(=O)N[C@@H](Cc1cccs1)C(=O)N[C@@H](CO)C(=O)N1Cc2ccccc2C[C@@H]1C(=O)N1[C@H](C(=O)N[C@@H](CCCNC(=N)N)C(=O)O)C[C@@H]2CCCC[C@@H]21` has an IC50 (Mu-type opioid receptor) of 0.813 nM and a Ki (Mu-type opioid receptor) of 0.3 nM.
Work on `C[C@@H](NC(=O)[C@@H](N)Cc1ccc(O)cc1)C(=O)NCC(=O)N[C@@H](Cc1ccccc1)C(=O)NC[C@H](NC(=O)[C@@H]1CCCN1C(=O)[C@H](CCCNC(=N)N)NC(=O)[C@H](N)CCCNC(=N)N)C(=O)NCC(=O)N[C@@H](Cc1cccs1)C(=O)N[C@@H](CO)C(=O)N1Cc2ccccc2C[C@@H]1C(=O)N1[C@H](C(=O)N[C@@H](CCCNC(=N)N)C(=O)O)C[C@@H]2CCCC[C@@H]21` yielded an IC50 (Mu-type opioid receptor) of 4.79 nM and an IC50 [1] of 6.76 nM.
`NC(N)=NCCC[C@@H](N)C(=O)N[C@@H](CCCN=C(N)N)C(=O)N1CCC[C@H]1C(=O)N1C[C@H](O)C[C@H]1C(=O)NCC(=O)N[C@@H](Cc1cccs1)C(=O)N[C@@H](CO)C(=O)N1Cc2ccccc2C[C@@H]1C(=O)N1[C@H](C(=O)N[C@@H](CCCN=C(N)N)C(=O)O)C[C@@H]2CCCC[C@@H]21` was tested, and the Ki (B2 bradykinin receptor [2]) was over 10000 nM and the Ki (B2 bradykinin receptor [4]) was 1 nM.
`C[C@@H](NC(=O)[C@@H](N)Cc1ccc(O)cc1)C(=O)NCC(=O)N[C@@H](Cc1ccccc1)C(=O)NC[C@H](NC(=O)[C@H](Cc1cccs1)NC(=O)CNC(=O)[C@@H]1C[C@@H](O)CN1C(=O)[C@@H]1CCCN1C(=O)[C@H](CCCNC(=N)N)NC(=O)[C@H](N)CCCNC(=N)N)C(=O)N1Cc2ccccc2C[C@@H]1C(=O)N1[C@H](C(=O)N[C@@H](CCCNC(=N)N)C(=O)O)C[C@@H]2CCCC[C@@H]21` (H-[dR]RP[Hyp]G[2Thi][Dap]([Phe-Gly-dA-Tyr])[dTic][Oic]R-OH) was tested, and the IC50 (Mu-type opioid receptor) was 15.5 nM and the IC50 [1] was 0.603 nM.
